According to patent US6262021A, “Use of substances having oxytocin activity for preparation of medicaments for wound healing” (EntreTech Medical AB, priority 1997, dated 2001):

Experiments:
musculocutaneous flaps = test: Survival of musculocutaneous flaps in rats after administration of oxytocin (Test 1); assay type: in vivo, rats (Sprague-Dawley); conditions: 1 mg/kg s.c. 24 h and 1 h before and 24 h after operation; estimated six days after operation; oxytocin p<0.05, antagonist no significance p=0.13
Excerpt: An established model of wound healing is to investigate the survival of musculocutaneous flaps in rats. In plastic surgery, reconstructive problems are often solved by surgical flaps. The main disadvantage of surgical flaps has been their tendency to develop ischemia and eventually necrosis of the distal part. This complication can in the end ruin what postoperatively seemed to be an excellent result. Much research has been devoted to explain the mechanisms of surgical skin flap survival and how to prevent and reverse established ischemia.
The aim of this study was to investigate the effects of oxytocin on the survival of musculocutaneous flaps in rats.
71 female albino rats (Sprague-Dawley, weight 180-220 g) were anaesthetized with chloralhydrate (0.4 g/kg), shaved on the back and a dorsal cranially based standard flap (2×7 cm) was elevated and then sutured back in position. The flap was raised from the deep fascia of muscle and included the superficial fascia, panniculus carnosus, subcutaneous tissue and skin. 24 h and 1 h before operation, respectively, as well as 24 h after operation the rats were treated with 1 mg/kg oxytocin s.c. (n=20), an oxytocin antagonist, that is 1-deamino-2-D-Tyr-(OEt)-4-Thr-8-Orn-oxytocin in an amount of 1 mg/kg (n=15), with 1 mg/kg of said oxytocin antagonist and then after 30 minutes with 1 mg/kg oxytocin (n=16), or with saline (n=20). […]

[1] = tested on: full-thickness dermal excisional wounds; test: Wound healing in diabetic mice after administration of oxytocin (Test 2); assay type: in vivo, C57BL/Ks-db/db diabetic mice
Excerpt: For studying the effects of cutaneous wound-healing agents on chronic non-healing dermal ulcers the mutant C57BL/Ks-db/db diabetic mouse has emerged as a potentially relevant healing-impaired model. These homozygous genetically diabetic mice develop obesity and hyper-glycemia that is resistant to insulin, analogous to human type II diabetes. They also show signs of diabetes such as excessive drinking and urination and greatly elevated urinary glucose levels. […] Previous studies have used this model to evaluate formulations of aFGF.
Female C57BL/Ks-db/db diabetic mice, 11 weeks old, were obtained from Jackson Laboratories (Bar Harbor, Me.). The mice were housed in sterile microisolator boxes (four per box) with sterile water and bedding and were kept in a semi-barrier quarantine facility. Supplemental heat was provided with electric heating pads under half of each box after wounding to prevent hypothermia and reduce mortality.
Mice were anesthetized with intraperitoneal injections of 110 mg ketamine and 9 mg xylazine per kg of body weight. The mid-back and thoracic skin was shaved and disinfected with a 2% Chlorhexidine surgical scrub, followed by 70% ethanol. A template 1.6 cm in diameter was used to mark a 2.0 cm^2 circle on the mid-dorsal area, and a single full-thickness wound was created by blunt excision with sterile curved iris scissors. […] All surgical and subsequent healing analysis procedures were performed in a laminar flow hood using full aseptic techniques. Doses were administrated on 5 consecutive days before, and on day 0, 3 and 7 after injury. Oxytocin was administrated at different doses, 0.001, 0.01, 0.1, 1.0, 10.0 and 100.0 μg/cm^2 , respectively, to groups of 16 mice per dose. The wounds were covered with a semitransparent Bioclusive dressing (Johnson & Johnson Products, New Brunswick, N.J.) for protection, maintenance of a moist environment and prevention of crust formation. Wound fluid samples were taken at day 10 after injury and cultured for aerobic and anaerobic microorganisms.
Wound appearances were recorded photographically and their perimeters were traced onto sterile glass slides applied directly to the exposed wound surfaces after pre-wetting with a drop of sterile physiologic saline. Measurements were made immediately after wounding and twice weekly thereafter until the wounds were completely closed. Wound areas and perimeters were determined from the glass-slide tracings using computerized image analysis. Statistical significances of differences between groups were evaluated using an unpaired two-tailed Student t-test.
Healing expressed as a decrease in percent initial area was converted to linear ingrowth from the wound edges by dividing the differences in wound areas by the average wound perimeters at sequential time intervals. Total ingrowth at a specific time is the sum of the incremental ingrowth distances up until that time. This transformation linearized closure as a function of time, thereby allowing expression of healing as kinetic rates that were constant over time.
Wounds, examined twice weekly to monitor time to total closure, were considered fully healed when moist granulation tissue was no longer apparent, indicating a functional epidermal water-permeability barrier. Closure was also confirmed histologically. Time-point comparisons of the fraction of healed versus unhealed wounds were analyzed by the X^2 statistic with Yates correction, and group comparisons of absolute days to total closure for individual animals were analyzed by an unpaired two-tailed Student t-test.

FGF-1 = test: Concentration of FGF in skin biopsies from the injured area of diabetic mice; assay type: in vivo, C57BL/Ks-db/db diabetic mice; conditions: 10 μg/cm^2 oxytocin; skin biopsies 7 days after injury; ten mice; p<0.001
Procedure: The concentration of FGF was compared in skin biopsies taken from the injured area ("ulcer") of ten mice treated with 10 μg/cm^2 oxytocin and ten mice treated with PBS 7 days after injury. […] This increase in concentration was highly significant (p<0.001) and strongly support the hypothesis that oxytocin increases wound healing through an increased expression and synthesis of FGF-1.

central α2 -receptors = test: Activity of central α2-receptors after oxytocin; assay type: in vivo; conditions: rats; by way of a central action
Excerpt: Experiments have shown that oxytocin by way of a central action increases the activity of the central α2 -receptors in rats. These receptors have an inhibitory action and counteracts the activating aspects of noradrenalin in the brain which are mainly mediated via α1 -receptors, which activate cyclic AMP. When α2 -receptor stimulation dominates over α1 -receptor stimulation, activity is exchanged by relaxation and energy is shunted towards growing and healing, i.e. is not used for stress or muscular contraction and activity. As a consequence parasympathetic nerve tone dominates over sympathetic nervous tone and the musculature is relaxed. It can be presumed that oxytocin exerts a similar effect also in humans. During breast feeding--a situation characterized by repetitive oxytocin secretion--all the effects observed in experimental animals following repeated oxytocin administration are seen. It is not known how the effect by oxytocin on α2 -receptors is mediated, but probably not by a classical oxytocin receptor mediated effect.

NGF = conditions: intravenous injection, female rats; cited from earlier work

activity of the central α2 -receptors (central α2 -receptors): increases
Structure (SMILES): CC[C@H](C)[C@@H]1NC(=O)[C@H](Cc2ccc(O)cc2)NC(=O)[C@@H](N)CSSC[C@@H](C(=O)N2CCC[C@H]2C(=O)N[C@@H](CC(C)C)C(=O)NCC(N)=O)NC(=O)[C@H](CC(N)=O)NC(=O)[C@H](CCC(N)=O)NC1=O [oxytocin]
survival of the flaps compared to the saline-treated controls (musculocutaneous flaps): significantly higher
healing rates over paired vehicle controls ([1]; 0.001 μg/cm^2, 0.01 μg/cm^2 and 0.1 μg/cm^2 doses): ineffective
linear rate of healing from the wound edges ([1]; 10 μg/cm^2, all time intervals, p≤0.01): increased
enhancement of the healing rate of treated wounds ([1]; 10 μg/cm^2, as early as day 7 after injury and throughout the test period, p≤0.01): Statistically significant enhancements
total closure (fraction of wounds closed) ([1]; 10 μg/cm^2, by day 14, p≤0.05): increases
decrease in wound size in treated mice compared with PBS/heparin vehicle ([1]; 10 μg/cm^2, day 14): 10 fold
maximum difference in percent of initial area between oxytocin and vehicle-treated wounds ([1]; 10 μg/cm^2, from 14 d after injury): 50%
mean linear healing rate ([1]; 10 μg/cm^2, vehicle-treated group 0.18 mm/d, p≤0.01): 0.45 mm/d
decrease of time to total closure ([1]; 0.001-μg/cm^2 and 0.01 μg/cm^2 doses): ineffective
time required for wounds to close completely ([1]; 1 to 100 μg/cm^2 per dose): significantly reduced
wounds closed sooner than respective vehicle controls ([1]; dose range 1.0 to 10.0 μg/cm^2): approximately 10 d
wound closure compared with vehicle control ([1]; three doses of 10 μg per cm^2 initial wound area during first week after wounding, topical): substantially faster
median time to complete closure ([1]; three doses of 10 μg/cm^2 during first week after injury, vehicle 52 d, p≤0.0001): 23 days
healing rates over paired vehicle controls ([1]; three topical applications, 1 to 100 μg/cm^2 per dose, first week after injury): significant dose-related increases
FGF-1 synthesized, increase compared to PBS vehicle treated mice (FGF-1): 162%
hypothalamic levels of NGF (NGF): increase
